Assay results: PMC9774648, “Synthesis, Physicochemical Properties and Molecular Docking of New Benzothiazole Derivatives as Antimicrobial Agents Targeting DHPS Enzyme” (Antibiotics, 2022)
Values after ≈ are worked out from the molar mass of the structure shown. Read-outs that look alike come from different tables or passages of the source.

Tests used:
[1] = test system: S. mutans; test: MIC, twofold serial dilution, S. mutans; assay type: cell-based; conditions: Streptococcus mutans, read-out: The Minimum Inhibitory Concentration (MIC), S. mutans
[2] = test system: S. aureus (ATCC: 6538); test: Agar well diffusion, inhibition zone, S. aureus; assay type: cell-based; conditions: for zone of inhibition at 15000 µg/mL: Staphylococcus aureus, read-out: Diameter of the Inhibition Zone, S. aureus
[3] = test system: S. mutans (ATCC: 25175); test: Agar well diffusion, inhibition zone, S. mutans; assay type: cell-based; conditions: for zone of inhibition at 15000 µg/mL: Streptococcus mutans, read-out: Diameter of the Inhibition Zone, S. mutans
[4] = test system: S. aureus; test: MIC, twofold serial dilution, S. aureus; assay type: cell-based; conditions: Staphylococcus aureus; twofold serial dilution in broth, 37 °C 16–20 h; read-out: The Minimum Inhibitory Concentration (MIC), S. aureus
Protocol: The new synthetic compounds, 6a–c, 12a–c, 14a–c, 16a–c and 19a–e, were tested in vitro to evaluate antibacterial activities against Gram-negative and Gram-positive bacteria, such as E. coli (ATCC: 3008), K. pneumonia (ATCC: 4415) and P. aeruginosa (ATCC: 27853), as an example for Gram-negative bacteria, as well as S. aureus (ATCC: 6538) and S. mutans (ATCC: 25175) for Gram-positive bacteria. The antifungal activities were evaluated also for the novel compounds in vitro against C. albicans (ATCC: 10231). The antibacterial and antifungal activities were determined by the agar-diffusion method using gentamicin, ampicillin and sulfadiazine, example of sulfa drug, as standard drugs against Gram-negative and Gram-positive, while nystatin was used as standard drug against the fungal strain. Table 1 summarizes the results for all tested compounds as the average diameter of inhibition zones of microbial growth around the discs in mm ± SD.
For each strain, three to five isolated colonies were selected from the fresh agar plate and were transferred into a tube containing 3–4 mL of sterile broth medium. The bacterial suspension was mixed well and incubated at 35–37 °C for 2–6 h. The turbidity of the bacterial suspension should be equal to or greater than the turbidity of a McFarland Standard 0.5. After that, 1 mg of the tested compound (antimicrobial agent) was dissolved in 1 mL DMSO and two-fold serial dilution was done using broth medium. A fixed volume of the prepared bacterial inoculum was added to each tube and incubated for at 37 °C 16–20 h. The MIC is defined as the lowest concentration of the antimicrobial agent that inhibits visible growth of the tested isolate as observed with the unaided eye.

[5] = test system: P. aeruginosa (ATCC: 27853); test: Agar well diffusion, inhibition zone, P. aeruginosa; assay type: cell-based; conditions: agar well diffusion, 15 mg/mL, 100 μL per well, 37 °C 24 h, mean ± SD, triplicate; for zone of inhibition at 15000 µg/mL: Pseudomonas aeruginosa, read-out: Diameter of the Inhibition Zone, P. aeruginosa
[6] = test system: E. coli (ATCC: 3008); test: Agar well diffusion, inhibition zone, E. coli; assay type: cell-based; conditions: agar well diffusion, 15 mg/mL, 100 μL per well, 37 °C 24 h, mean ± SD, triplicate
[7] = test system: K. pneumonia (ATCC: 4415); test: Agar well diffusion, inhibition zone, K. pneumonia; assay type: cell-based; conditions: agar well diffusion, 15 mg/mL, 100 μL per well, 37 °C 24 h, mean ± SD, triplicate
[8] = target: DHPS enzyme (dihydropteroate synthase) (Bacillus anthracis, UniProt Q81VW8); test: biochemical; conditions: for inhibition at 0.1 µg/mL: 0.1 μg/mL; for inhibition at 0.1 µg/mL / inhibition at 1 µg/mL / inhibition at 10 µg/mL / inhibition at 100 µg/mL: read-out: Inhibition % against DHPS enzyme; for inhibition at 1 µg/mL: 1 μg/mL; for inhibition at 10 µg/mL: 10 μg/mL; for inhibition at 100 µg/mL: 100 μg/mL
Sequence of DHPS enzyme (dihydropteroate synthase) (Q81VW8 1-280): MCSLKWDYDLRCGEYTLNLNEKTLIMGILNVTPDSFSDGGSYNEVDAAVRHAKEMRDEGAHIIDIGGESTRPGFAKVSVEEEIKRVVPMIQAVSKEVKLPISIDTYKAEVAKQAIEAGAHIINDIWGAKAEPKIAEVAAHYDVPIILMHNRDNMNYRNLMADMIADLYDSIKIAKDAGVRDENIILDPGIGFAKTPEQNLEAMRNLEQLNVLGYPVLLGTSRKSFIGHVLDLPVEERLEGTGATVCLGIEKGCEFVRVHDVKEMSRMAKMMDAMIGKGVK

[9] = test system: C. albicans (ATCC: 10231); test: Agar well diffusion, inhibition zone, C. albicans; assay type: cell-based; conditions: 15 mg/mL, 100 μL per well, mean ± SD, triplicate; for zone of inhibition at 15000 µg/mL: Candida albicans, read-out: Diameter of the Inhibition Zone, C. albicans
[10] = test system: P. aeruginosa; test: MIC, twofold serial dilution, P. aeruginosa; assay type: cell-based; conditions: Pseudomonas aeruginosa; twofold serial dilution in broth, 37 °C 16–20 h; read-out: The Minimum Inhibitory Concentration (MIC), P. aeruginosa
[11] = agar well diffusion, 15 mg/mL, 100 μL per well, 37 °C 24 h, mean ± SD, triplicate
[12] = twofold serial dilution in broth, 37 °C 16–20 h

Row | SMILES | MIC [4] | Diameter of the Inhibition Zone, P. aeruginosa [5] | Diameter of the Inhibition Zone, E. coli [6] | zone of inhibition at 15000 µg/mL [2, 11] | Diameter of the Inhibition Zone, K. pneumonia [7] | zone of inhibition at 15000 µg/mL [3, 11] | melting point | Diameter of the Inhibition Zone, S. mutans [3, 11] | other results
1 | CC1(C)S[C@@H]2[C@H](NC(=O)[C@H](N)c3ccccc3)C(=O)N2[C@H]1C(=O)O [Ampicillin, reference compound] | 179 µM (≈ 62.5 µg/mL) |  |  |  |  |  |  |  | MIC [1]: 179 µM (≈ 62.5 µg/mL); zone of inhibition at 15000 µg/mL ([2]; 24 h): 22 ± 0.1 mm; zone of inhibition at 15000 µg/mL ([3]; 24 h): 30 ± 0.5 mm
2 | Nc1c(C(=O)Nc2ccccc2)cc(-c2nc3ccccc3s2)c(=O)n1NS(=O)(=O)c1ccc(Cl)cc1 [Compound 6a, 2-Amino-5-(benzo[d]thiazole-2-yl)-1-(4-chlorophenylsulfonamido)-6-oxo-N-phenyl-1,6-dihydropyridine-3–carboxamide] | 906 µM (≈ 500 µg/mL) | - | - | 19.6 ± 0.6 mm | ^a - | 12.3 ± 0.6 mm |  |  | 
3 | Nc1c(C(=O)Nc2ccc(Cl)cc2)cc(-c2nc3ccccc3s2)c(=O)n1NS(=O)(=O)c1ccc(Cl)cc1 [Compound 6b, 2-Amino-5-(benzo[d]thiazole-2-yl)-N-(4-chlorophenyl)-1-(4-chlorophenylsulfonamido)-6-oxo-1,6-dihydropyridine-3–carboxamide] | 1700 µM (≈ 1000 µg/mL) | - | - | 18.3 ± 0.6 mm | - | 15.3 ± 0.5 mm | 334 to 336 °C |  | MIC [1, 12]: 1700 µM (≈ 1000 µg/mL)
4 | Cc1ccc(NC(=O)c2cc(-c3nc4ccccc4s3)c(=O)n(NS(=O)(=O)c3ccc(Cl)cc3)c2N)cc1 [Compound 6c, 2-Amino-5-(benzo[d]thiazole-2-yl)-1-(4-chlorophenylsulfonamido)-6-oxo-N-(p-tolyl)-1,6-dihydropyridine-3–carboxamide] |  | - | - | 10.6 ± 0.5 mm | - | 10.6 ± 0.5 mm | 302 to 305 °C |  | 
5 | O=c1[nH]c(-c2ccc(Cl)cc2)ccc1-c1nc2ccccc2s1 [Compound 12a, 3-(Benzo[d]thiazol-2-yl)-6-(4-chlorophenyl)pyridin-2(1H)-one] | 369 µM (≈ 125 µg/mL) | - | - | 19.6 ± 0.6 mm | - |  |  | - | IC50 [8]: 83.6 µM; inhibition at 0.1 µg/mL [8]: 11%; inhibition at 1 µg/mL [8]: 27%; inhibition at 10 µg/mL [8]: 44%; inhibition at 100 µg/mL [8]: 58%
6 | O=c1[nH]c(-c2ccc(Br)cc2)ccc1-c1nc2ccccc2s1 [Compound 12b, 3-(Benzo[d]thiazol-2-yl)-6-(4-bromophenyl)pyridin-2(1H)-one] | 2610 µM (≈ 1000 µg/mL) | - | - | 17.6 ± 0.6 mm | - |  | 345 to 346 °C | - | 
7 | COc1ccc(-c2ccc(-c3nc4ccccc4s3)c(=O)[nH]2)cc1 [Compound 12c, 3-(Benzo[d]thiazol-2-yl)-6-(4-methoxyphenyl)pyridin-2(1H)-one] |  | - | - | 15.6 ± 0.5 mm | - | 11.3 ± 0.5 mm |  |  | 
8 | Cc1ccc(S(=O)(=O)NNC(=O)/C(=C/c2ccc(F)cc2)c2nc3ccccc3s2)cc1 [Compound 14a] | 1070 µM (≈ 500 µg/mL) | - | - | 19.3 ± 0.6 mm | - | 18.3 ± 0.6 mm | 201 to 202 °C |  | MIC [1, 12]: 2140 µM (≈ 1000 µg/mL); zone of inhibition at 15000 µg/mL [9]: 20.6 ± 0.6 mm
9 | Cc1ccc(/C=C(/C(=O)NNS(=O)(=O)c2ccc(C)cc2)c2nc3ccccc3s2)cc1 [Compound 14c, N-(2-(Benzo[d]thiazole-2-yl)-3-(p-tolyl)acryloyl)-4-methylbenzene-sulfonohydrazide] | 135 µM (≈ 62.6 µg/mL) | - | - | 30.3 ± 0.6 mm | - | 20.3 ± 0.6 mm | 195 to 196.5 °C |  | IC50 [8]: 56.4 µM; inhibition at 0.1 µg/mL [8]: 8.6%; inhibition at 1 µg/mL [8]: 21%; inhibition at 10 µg/mL [8]: 46%; inhibition at 100 µg/mL [8]: 59%; MIC [1, 12]: 539 µM (≈ 250 µg/mL); zone of inhibition at 15000 µg/mL [9]: 11.3 ± 0.5 mm
10 | O=C(NNS(=O)(=O)c1ccccc1)/C(=N/Nc1ccccc1)c1nc2ccccc2s1 [Compound 19a, N′-(2-(Benzo[d]thiazol-2-yl)-2-(2-phenylhydrazono)acetyl)benzenesulfono-hydrazide] |  | - | - |  | - |  | 246 to 248.6 °C | - | Diameter of the Inhibition Zone, S. aureus [2, 11]: -; zone of inhibition at 15000 µg/mL [9]: 10.3 ± 0.5 mm
11 | O=C(NNS(=O)(=O)c1ccccc1)C(=NNc1ccc(Cl)cc1)c1nc2ccccc2s1 [Compound 19b, N′-(2-(Benzo[d]thiazol-2-yl)-2-(2-(4-chlorophenyl)hydrazono)acetyl)benzene-sulfonohydrazide] |  | - | - | 11.6 ± 0.5 mm | - |  | 265 to 267 °C | - | 
12 | Cc1ccc(NN=C(C(=O)NNS(=O)(=O)c2ccccc2)c2nc3ccccc3s2)cc1 [Compound 19c, N′-(2-(Benzo[d]thiazol-2-yl)-2-(2-(4-methylphenyl)hydrazono)acetyl)benzene-sulfonohydrazide] |  |  | - | 11 ± 1 mm | - |  | 262 to 263 °C | - | zone of inhibition at 15000 µg/mL [5]: 16 ± 1 mm; MIC [10]: 2150 µM (≈ 1000 µg/mL); zone of inhibition at 15000 µg/mL [9]: 11.6 ± 0.5 mm
13 | Cc1ccc(S(=O)(=O)NNC(=O)/C(=N/Nc2ccc(Cl)cc2)c2nc3ccccc3s2)cc1 [Compound 19d, N′-(2-(Benzo[d]thiazol-2-yl)-2-(2-(4-chlorophenyl)hydrazono)acetyl)-4-methylbenzenesulfono-hydrazide] |  |  | - |  | - |  | 280 to 281 °C | - | zone of inhibition at 15000 µg/mL [5]: 21.6 ± 0.6 mm; Diameter of the Inhibition Zone, S. aureus [2, 11]: -; MIC [10]: 500 µM (≈ 250 µg/mL)
14 | Cc1ccc(N/N=C(/C(=O)NNS(=O)(=O)c2ccc(C)cc2)c2nc3ccccc3s2)cc1 [Compound 19e, N′-(2-(Benzo[d]thiazol-2-yl)-2-(2-(4-methylphenyl)hydrazono)acetyl)-4-methylbenzenesulfono-hydrazide] |  | - | - |  | - |  | 285 to 286 °C | - | Diameter of the Inhibition Zone, S. aureus [2, 11]: -
15 | C[C@@H]1[C@H](O)[C@@H](C)/C=C/C=C/CC/C=C/C=C/C=C/C=C/C(O[C@H]2O[C@H](C)[C@@H](O)[C@H](N)[C@@H]2O)CC2O[C@](O)(CC(O)C(O)CCC(O)CC(O)CC(O)CC(=O)O[C@H]1C)CC(O)C2C(=O)O (stereo partly drawn) [Nystatin, reference compound] |  |  |  |  |  |  |  |  | Diameter of the Inhibition Zone, C. albicans [9]: 21.0 ± 0.5 mm
